From US7108865B2, “Controlled-release dosage forms of azithromycin” (Pfizer Inc, priority 1994, dated 2006)

Legend:
[1] = Visual Analogue Scale gastrointestinal side effects after duodenal or ileocecal dosing (Example 2); type: in vivo, human; conditions: for Incidence of Visual-Analogue-Scale score >1, abdominal cramping / Incidence of Visual-Analogue-Scale score >1, abdominal pain / Incidence of Visual-Analogue-Scale score >1, nausea / Incidence of Visual-Analogue-Scale score >1, regurgitation / Incidence of Visual-Analogue-Scale score >4, abdominal cramping / Incidence of Visual-Analogue-Scale score >4, abdominal pain / Incidence of Visual-Analogue-Scale score >4, nausea / Incidence of Visual-Analogue-Scale score >4, regurgitation: any time during 96 hour post-dose, subjects reporting/total; for Mean Cumulative Score (Visual Analogue Scale), abdominal cramping / Mean Cumulative Score (Visual Analogue Scale), abdominal pain / Mean Cumulative Score (Visual Analogue Scale), nausea / Mean Cumulative Score (Visual Analogue Scale), regurgitation: entire 96 hour post-dose period
Protocol: Healthy male subjects were divided into two groups. […] All subjects were dosed after an overnight fast.
Prior to dosing and each blood sampling time, each subject filled out a questionnaire, which consisted of a series of “Visual Analogue Scales” in which the subject was required to rate, on a scale of 0–10, the severity of certain potential side effects. The subjects were instructed that “0” indicated an absent effect and “10” indicated the worst possible effect. The subjects were instructed to interpolate between 0 and 10 for moderate side effects.
Analysis of side effect visual-analogue-scale data was carried out in two formats. In the first format (Table V), the analysis concentrated on the general incidence of side effects of a particular type. For each side effect type (e.g., abdominal pain), Table V reports the number of subjects who reported a score >1 at any time during the 96 hr post-dosing, and the number of subjects who reported a score >4 at any time during the 96 hr post-dosing. This analysis assumes that all scores >1 represent a real side effect occurrence, however mild or severe. A score >4 is presumed to reflect a moderate-to-severe side effect occurrence.
In the second format (Table VI), the analysis reflects the general severity and duration of side effects. For a particular side effect (e.g., Abdominal Pain) in a particular subject, all visual-analogue-scale scores (over the 96 hr post-dose period) were summed to give a “cumulative score” over the entire time period of evaluation. “Cumulative scores” for all members of a treatment group were summed, and divided by the number of subjects in the group, to give a Mean Cumulative Score. […] Table VI presents Mean Cumulative Scores for abdominal pain, nausea, regurgitation, and abdominal cramping.

[2] = cited from earlier work
[3] = Serum azithromycin pharmacokinetics after 2 g oral capsule dose, single vs divided (Example 1); type: in vivo; conditions: male, human, mean; for AUC(0-t): read-out: AUC0–144
Protocol: In a double-blind, randomized, placebo-controlled parallel group study, healthy male subjects were divided into three groups. Group A received a single 2 g azithromycin dose as eight 250 mg azithromycin capsules (“bolus dosing” group). Group B received the same total dose, administered as eight 250 mg capsules at the rate of one 250 mg capsule each 30 minutes for 3.5 hr (“divided dosing” group). Group C received matching placebo capsules. All subjects received eight capsules of drug or placebo at time 0, and a capsule of drug or placebo every half-hour for 3.5 hr. All subjects were dosed after an overnight fast. […] Tmax is the time at which Cmax is achieved.

clinical = conditions: male, human, in vivo
Description: Healthy male subjects were divided into two groups. Group A received a 2 g azithromycin dose administered directly into the duodenum as a solution via a nasoenteric tube. Group B received the same azithromycin solution dose, administered directly into the ileocecal region of the small intestine via a nasoenteric tube. The nasoenteric tube was a single lumen, 4.5 meter tube with a side port for delivery of drug. Placement of the tube for duodenal and ileocecal delivery was confirmed by fluoroscopy. Infusions to the duodenum or ileocecal region were administered at a concentration of 40 mg/ml within 5 minutes. All subjects were dosed after an overnight fast. Subjects were randomized to receive azithromycin and placebo via nasoenteric tube and intravenous infusion in a double-blind, placebo controlled fashion.
Blood samples were withdrawn prior to dosing, and at 0.08, 0.17, 0.33, 0.66, 1, 2, 4, 8, 12, 24, 48, 72, and 96 hr post-dosing. Serum azithromycin concentrations were determined using the high performance liquid chromatography assay described in Shepard et al., J. Chromatography, 565: 321–337, (1991). Total systemic exposure to azithromycin was determined by measuring the area under the serum azithromycin concentration vs. time curve (AUC) for each subject in a given group, and then by calculating a mean AUC for the group. Cmax is the highest serum azithromycin concentration achieved in a subject. Tmax is the time at which Cmax is achieved. In one leg of this study, all subjects received an intravenous 2g azithromycin dose. The intravenous AUC was determined in order to calculate the absolute duodenal and ileocecal bioavailabilities, as described below.

[4] = Recovery of azithromycin in ileostomy fluid after IV infusion in ileostomy subjects; type: in vivo, human; conditions: 500 mg IV infusion over 1 hr, twelve ileostomy subjects, 24 hr following dose
Description: A 2.0 g intravenous azithromycin dose is equivalent to a 5.4 g oral azithromycin dose, from the standpoint of equivalent systemic drug exposure. At an even higher intravenous dose, a higher side effect incidence is observed. While GI side effects can be elicited by high intravenous doses, these observations are consistent with the statement that azithromycin GI side effects are mediated by direct contact of the drug with the intestinal wall in the lumen, based upon the following additional study. Twelve ileostomy subjects were administered an IV infusion of 500 mg azithromycin over 1 hr. Serum was collected predose and at 0.17, 0.33, 0.5, 1, 2, 4, 8, 12, 24, 48, 72, 96, 120, and 144 hr following initiation, of the infusion. In addition, the contents of the subjects' ileostomy bags were collected for the following intervals: 12 hr predose, 0–6 hr post-dose, 6–12 hr post-dose, and 12–24 hr post-dose. The serum and ileostomy fluid concentrations of azithromycin were assayed. […] Thus it is not surprising that high intravenous doses of azithromycin can cause gastrointestinal side effects, since a portion of the IV dose partitions into the lumen of the small intestine.

[5] = human body; cited from earlier work
[6] = 2 g directly into the ileocecal region
[7] = 2 g solution directly into the duodenum, n 5
[8] = 2 g solution directly into the ileocecal region, n 6
[9] = 250 mg capsule per half-hr for 3.5 hr (2 g total), oral, fasted
[10] = 2 g single oral dose as eight 250 mg capsules, fasted

## CC[C@H]1OC(=O)[C@H](C)[C@@H](O[C@H]2C[C@@](C)(OC)[C@@H](O)[C@H](C)O2)[C@H](C)[C@@H](O[C@@H]2O[C@H](C)C[C@H](N(C)C)[C@H]2O)[C@](C)(O)C[C@@H](C)CN(C)[C@H](C)[C@@H](O)[C@]1(C)O [azithromycin, 9a-aza-9a-methyl-9-deoxo-9a-homoerythromycin A]
[1]; 2 g directly into the duodenum
  Incidence of Visual-Analogue-Scale score >1, abdominal cramping: 5/5
  Incidence of Visual-Analogue-Scale score >1, abdominal pain: 4/5
  Incidence of Visual-Analogue-Scale score >1, nausea: 2/5
  Incidence of Visual-Analogue-Scale score >1, regurgitation: 3/5
  Incidence of Visual-Analogue-Scale score >4, abdominal cramping: 0/5
  Incidence of Visual-Analogue-Scale score >4, abdominal pain: 0/5
  Incidence of Visual-Analogue-Scale score >4, nausea: 1/5
  Incidence of Visual-Analogue-Scale score >4, regurgitation: 0/5
[1]; [6]
  Incidence of Visual-Analogue-Scale score >1, abdominal cramping: 2/6
  Incidence of Visual-Analogue-Scale score >1, abdominal pain: 2/6
  Incidence of Visual-Analogue-Scale score >1, nausea: 2/6
  Incidence of Visual-Analogue-Scale score >1, regurgitation: 0/6
  Incidence of Visual-Analogue-Scale score >4, abdominal cramping: 0/6
  Incidence of Visual-Analogue-Scale score >4, abdominal pain: 0/6
  Incidence of Visual-Analogue-Scale score >4, nausea: 0/6
  Incidence of Visual-Analogue-Scale score >4, regurgitation: 0/6
[1]; [7]
  Mean Cumulative Score (Visual Analogue Scale), abdominal cramping: 13.2
  Mean Cumulative Score (Visual Analogue Scale), abdominal pain: 13.4
  Mean Cumulative Score (Visual Analogue Scale), nausea: 11.6
  Mean Cumulative Score (Visual Analogue Scale), regurgitation: 7.2
[1]; [8]
  Mean Cumulative Score (Visual Analogue Scale), abdominal cramping: 3.3
  Mean Cumulative Score (Visual Analogue Scale), abdominal pain: 2.7
  Mean Cumulative Score (Visual Analogue Scale), nausea: 2.0
  Mean Cumulative Score (Visual Analogue Scale), regurgitation: 0
[2]; typical value
  oral bioavailability of an azithromycin capsule: about 38%
[2]; used to convert intravenous to equivalent oral doses
  oral bioavailability: 37%
[3]; [9]
  Cmax: 1130 ng/mL
  Tmax: 4.4 h
  AUC(0-t): 18900 ng·h/mL
[3]; 2 g single oral dose as eight 250 mg capsules, fasted healthy male subjects
  Cmax: 1690 ng/mL
[3]; [10]
  Tmax: 1.3 h
  AUC(0-t): 18800 ng·h/mL
clinical
  AUC0–96: 14500 ng·h/mL
  bioavailability: 39.1%
  bioavailability for duodenal dosing (AUCduodenal/AUCIV×100): 43.8%
  overall systemic exposure (AUC) lower for ileocecal dosing compared with duodenal dosing: 15%
clinical; AUC0–96
  AUC(0-t): 17000 ng·h/mL
[4]
  dose recovered intact in the ileostomy fluid: 13%
[5]
  elimination half-life: about 69 hours
